Reference: paper PMC6396489 (Cell Communication and Signaling : CCS, 2019)

How the values were obtained:
NIH3T3 cells [1] = test: Immunofluorescence analysis for membrane ruffling; format: cell-based
Method: NIH3T3 and Raw 264.7 cells were cultured in DMEM supplemented with 2 mM L-glutamine, 50 U/mL penicillin, […] streptomycin, and 10% CS or heat-inactivated FBS (30 min at 55 °C), respectively. NIH3T3 cells were transfected with different plasmids using the Lipofectamine LTX/plus reagent according to the manufacturer’s instructions. For immunofluorescence experiments, NIH3T3 cells were seeded onto glass coverslips in 24-well plates at a concentration suitable for 70% confluence without transfection or 50% confluence in the case of Lipofectamine-based cell transfection. In the latter, approximately 24 h after seeding, NIH3T3 cells were transiently transfected with different plasmids with the Lipofectamine LTX/plus reagent following the manufacturer’s instructions. Before treatments, NIH3T3 cells were serum-starved in DMEM with 2 mM glutamine, 50 U/mL penicillin and streptomycin for 16–20 h. The cells were then treated with different stimuli and/or inhibitors, as indicated in the text and/or Figure legends. Addition of exogenous GroPIns4P was at 50 μM (unless otherwise indicated), a concentration eliciting an intracellular concentration of about 1.5 μM, as calculated from the Nernst equation (with T = 300 K, z = − 3, and Veq = − 30 mV, an average value for cultured, non-excitable cells).
For ruffle assessment after treatments, immunofluorescence labelling and morphological analysis of the cells were performed as previously described in a double-blind fashion. In brief, the assessment was based on a null score (zero) for the absence of the feature, followed by a score of one or two according to the level of response of each individual cell, where one indicate that ruffling was confined to one area of the cell (< 25% of the cell circumference), and two indicate that two or more discrete areas of the cell contained ruffles. The cell phenotypes were quantified by counting 150 cells in each sample. The data were then expressed as percentage scores (±SD) for each treatment response compared with its respective control. Scoring of the control cells was performed in the same way to evaluate the presence of the features of interest in untreated cells.

NIH3T3 cells [2] = test: Wound-healing assay; format: cell-based
Method: To perform the wound-healing assay, NIH3T3 cells were seeded in 6-well tissue culture plates to a final density of 3 × 10^5 cells/well and maintained at 37 °C and 5% CO2 for 24 h until confluence before being starved overnight in DMEM containing 1% bovine serum. The cell monolayer was wounded by scratching with a 10 μL standard sterile pipette tip. The scratched monolayer was rinsed twice with DMEM containing 1% bovine serum to remove cell debris and incubated with or without 50 μM GroPIns4P. […] In detail, the input image was processed by applying a Sobel edge detector [26], obtaining a gradient image. A threshold process was then performed on the gradient image to obtain the foreground corresponding to the wound area. Particularly, all of the pixels of the gradient image with values less than the threshold θ were assumed to be pixels of the foreground (experimentally, θ is set to 4). Finally, procedures based on morphological operations were used to remove small regions and to fill holes of the wound area to complete detection and analysis.

Shp1 [3] = molecular target: T1, Shp1 (Homo sapiens, UniProt P29350); test: In-vitro dephosphorylation of Src by recombinant Shp1; format: biochemical; conditions: 50 μM, 10 min at 37 °C
T1 construct: the C-terminal truncated form of human Shp1 cDNA (His-Shp1; amino acids 1–529); made in house; host or cells: E. coli BL21(DE3)
T1 sequence (P29350 1-529 isoform P29350-3): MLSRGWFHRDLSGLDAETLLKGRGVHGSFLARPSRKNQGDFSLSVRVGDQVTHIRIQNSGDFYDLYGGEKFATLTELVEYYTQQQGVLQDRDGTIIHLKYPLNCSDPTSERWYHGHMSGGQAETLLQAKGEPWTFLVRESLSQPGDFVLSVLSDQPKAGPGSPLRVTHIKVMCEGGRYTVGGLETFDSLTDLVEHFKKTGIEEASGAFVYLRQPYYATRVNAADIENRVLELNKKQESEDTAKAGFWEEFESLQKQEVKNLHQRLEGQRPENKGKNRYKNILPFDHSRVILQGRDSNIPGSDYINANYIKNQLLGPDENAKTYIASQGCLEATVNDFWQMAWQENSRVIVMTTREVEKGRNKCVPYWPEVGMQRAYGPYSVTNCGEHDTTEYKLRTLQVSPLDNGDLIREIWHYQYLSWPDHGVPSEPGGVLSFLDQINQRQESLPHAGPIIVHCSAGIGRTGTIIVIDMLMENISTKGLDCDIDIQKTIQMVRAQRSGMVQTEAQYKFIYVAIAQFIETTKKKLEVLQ
Method: The immunoprecipitates were washed three times with lysis buffer, three times with lysis buffer without phosphatase inhibitors, and twice with phosphatase buffer (100 mM Na-Hepes, pH 7.4, 150 mM NaCl, 1 mM EDTA, and 10 mM DTT). The immunoprecipitates were then split equally into different tubes for treatment with Shp1 or buffer only. The treatment consisted of the addition of 2 μg of Shp1 to the immunoprecipitates in the absence or presence of 50 μM GroPIns4P and an incubation at 37 °C for different times. The reactions were terminated by the addition of concentrated SDS-sample buffer.

Shp1 [4] = molecular target: T1, Shp1; test: Steady-state Trp fluorescence emission spectroscopy of purified Shp1; format: binding
Method: The absorption spectra of Shp1 were recorded using a Varian Cary 1 spectrophotometer. Steady-state fluorescence emission measurements were performed with a K2 fluorometer (ISS, Champaign, IL, USA) equipped with a two-cell temperature-controlled sample holder. To selectively excite Trp residues, the excitation wavelength was set at 295 nm with a slit width of 1 nm. To avoid the inner-filter effect, all steady-state fluorescence measurements were performed on Shp1 with optical densities at 295 nm less than 0.1 OD. All measurements were made at 25 °C with the temperature of the samples determined in the cuvette with an accuracy of ±0.2 °C. For each experiment, the Shp1 concentration was fixed at 1.2 μM, while GroPIns4P was varied from 0.0 to 5.0 μM. Thus, a 500 μL solution containing 1.2 μM Shp1 dissolved in PBS pH 7.4 was titrated by successive additions of GroPIns4P (dissolved in PBS buffer, pH 7.4). After each addition, the samples were incubated for 2 min and fluorescence emission spectra were recorded between 310 and 410 nm in triplicate. To exclude the influence of sample dilution, fluorescence titration experiments were performed by adding the same amount of PBS buffer in the total volume (500 μL).

## O=P(O)(O)OC1C(O)C(O)C(OP(=O)(O)OCC(O)CO)C(O)C1O (stereo not shown) [GroPIns4P, glycerophosphoinositol 4-phosphate]
NIH3T3 cells [1]; 50 μM GroPIns4P for 5 min
  increase in peripheral ruffles versus the control: 2.5–3 fold
NIH3T3 cells [1]; cells expressing Shp1 S118A/R138E/S140A, 50 μM GroPIns4P
  effect on ruffle formation: significantly inhibited
NIH3T3 cells [1]; cells over-expressing Shp1-C455S, 50 μM GroPIns4P
  membrane ruffle formation: did not lead to membrane ruffle formation
NIH3T3 cells [1]; cells over-expressing Shp1 S12A/R32E/S34A, 50 μM GroPIns4P
  actin ruffle formation: resulted in the induction of actin ruffles
NIH3T3 cells [2]; 50 μM, 6 h after scratching
  increase of wound closure compared to the control: 65%
NIH3T3 cells [2]; 50 μM, at 30 h
  wound closure: almost complete
NIH3T3 cells [2]; EGF 10 ng/ml, cPLA2α inhibitor, 50 μM GroPIns4P
  rescue of EGF effect in cells treated with cPLA2α inhibitor: could be rescued
Shp1 [3]
  effect on Shp1 phosphatase activity against immunopurified Src (pTyr530): stimulated Shp1 activity and induced Src dephosphorylation
Shp1 [4]; Shp1 1.2 μM, GroPIns4P 0.0 to 5.0 μM, emission at 332 nm, read-out: apparent EC50 of Trp fluorescence quenching
  EC50: ~600 nM
Shp1 [4]; at 5 μM GroPIns4P
  maximal quenching of the initial emission: 18%
